From patent US20230272014A1, “COMPOSITION OF NANOPARTICLES AS CARRIER FOR HPV-DERIVED IMMUNOGENIC FRAGMENTS” (priority 2020, published 2023)

What was measured:
[1] = Poly(I:C) loading capacity of SiO2-Arg nanoparticles (DLS, zeta potential); assay type: physicochemical; conditions: SiO2-Arg loaded with poly(I:C) LMW, 0.9% NaCl
[2] = tested on: influenza A virus PR8/34; assay type: in vivo, C57BL/6 mice; conditions: s.c. 24 hours before intranasal five-fold LD50 influenza A PR8/34
[3] = tested on: DC2.4 cells; experiment: MHC class I cross presentation of OVA257-264 in DC2.4 cells; assay type: cell-based, murine; conditions: 6 h incubation, 5 μM, 25-D1.16 antibody, flow cytometry, with or without SiO2—PO3H2
Method: After an incubation time of 6 h, the test substances were removed by washing with phosphate-buffered saline (PBS). In the next step, the cells were incubated with CD16/CD32 antibody in order to block the non-specific binding of the detection antibody to the Fc (Fragment, crystallizable) receptor of the cells. After incubation with 25-D1.16 antibody, the amount of cross-presented OVA257-264 was quantified by flow cytometry. FIG. 16: […] Quantification was carried out by flow cytometry after labeling with 25-D1.16 detection antibody.

Substance | PDI [1] | Peak [1] [nm] | Z ave [1] [nm] | improvement compared to the placebo group [2] | OVA257-264 MHC class I presentation [3]
polyinosinic:polycytidylic acid [poly(I:C)] | 0.557 | 12.69 | 33.83 | does not show any statistically significant improvement | 
SIINFEKL (Ovalbumin aa 258-265; listed as Gallus gallus) [OVA257-264] |  |  |  |  | presented in significant amounts
